Melting point data for 92 compounds are collected here from a melting point compilation (Tetko et al.; mined from patent text by program, amines drawn as free bases though some values may be those of a salt).

The melting point is the temperature of the solid-liquid transition.

Compound `COc1ccc2ccc3c(c2c1)C=C(C(=O)O)CO3` displayed a melting point of 226 °C.

The compound `CC(C)C[C@H](NC(=O)OCc1ccccc1)C(=O)N[C@@H](C(C)C)[C@@H](O)c1c(-c2ccccc2)c1=O` gave a melting point of 84 to 94 °C.

As to `CC(C)(C)c1cc(C(=O)Oc2ccc(C(=O)c3cc(C(C)(C)C)c(O)c(C(C)(C)C)c3)c(O)c2)cc(C(C)(C)C)c1O`, the melting point lay within 120 to 122 °C.

`Clc1cc(Cl)c2c(c1)[nH]c1c2ccc2cc[nH]c21`: the melting point is above 250 °C. Consider `CC1(O/N=C(\C(=O)O)c2csc(N)n2)CCCC1`, for which the melting point is 182 to 183 °C. In turn, `CCOc1nn(Cc2ccc(OCc3cccnc3)cc2)cc1CCC(=O)O` showed a melting point of 120 to 121 °C. As for `Cc1c(-c2ccccc2)oc(C(=O)O)cc1=O`, the melting point worked out at 218 °C.

For the compound `COC(=O)C(Oc1ccc(Cl)cc1)c1ccc(OCOc2ccc(Cl)cc2)cc1` (configuration not stated), the melting point was 64 to 65 °C. `CCOC(=O)c1c(C(F)(F)F)oc(C(F)(F)F)c(C(=O)OCC)c1=O` gave a melting point of 90 to 91 °C. Take `CSCCOC(=O)N(C)c1nnc(-c2cncc(F)c2)s1`: the melting point was 104 to 106 °C. Turning to `CN(C)C(=O)c1nc(Cl)c(Cl)[nH]1`, the melting point was 245 °C.

`CCOc1ccc(-c2nnc(Nc3ccc(Br)c(Cl)c3)s2)cc1` yielded a melting point of 225 to 226 °C. The compound `FC(F)(F)c1sc(S)nc1Cl` displayed a melting point of 142 to 144 °C.

Compound `CCCCc1nc2ccc(C(=O)O)cc2n1Cc1ccc(C(=O)O)cc1` had a melting point of 290 °C.

In the case of `CN(C)Nc1cc(Cl)c(Cl)cc1[N+](=O)[O-]`, the melting point is 138 to 143 °C. In turn, `COc1cccc2c1c1nc3ccccc3cc1n2C(C)=O` returned a melting point of 125 to 126 °C. On to `O=C(CCCOc1ccc2nc3[nH]c(=O)[nH]c3cc2c1)N1CCCCC1`, for which the melting point was in the range of 284 to 286 °C. `CSc1nccc(-c2cccc(C(F)(F)F)c2)n1` yielded a melting point of 89 to 90 °C. `NCc1ccn(-c2cc3c(cc2[N+](=O)[O-])[nH]c(=O)c(=O)n3C2CCCCC2)c1` returned a melting point above 300 °C. In turn, `NCCC(=O)NCCCCCNC(=O)Cc1cccc(O)c1` showed a melting point of 109 to 115 °C. Then `O=c1[nH]c2cc(Cl)ccc2c(=O)cc1NCCc1ccccc1`, with 284 to 287 °C.

The compound `CCOC(=O)c1cc(=O)cc(-c2ccc(S(C)(=O)=O)cc2)o1` yielded a melting point of 176 to 179 °C. The compound `CC(=O)C1Oc2c(C(C)(C)C)cc(Cl)cc2C1(C)C` (configuration not stated) had a melting point of 76 to 77 °C. The compound `CC(C)NC(=O)CCC(=O)c1ccccc1` had a melting point of 118 to 121 °C.

Take `CC(C)N(C=Nc1ccncc1O)C(C)C`: the melting point lay in the range of 77 to 79 °C.

Compound `Nc1c(Br)cc(C(=O)CBr)cc1Br` gave a melting point of 146 to 147 °C. `O=C(Nc1ccccc1)c1cn(-c2ccccc2)c2ccccc2c1=O` yielded a melting point of 203 to 205 °C. The result for `O=c1ccn(CCO)c(C(O)c2ccccc2)c1O` (configuration not stated) reads 198 to 200 °C; that for `Cc1c(-c2ccc(O)cc2)sc(C=O)c1-c1ccc(O)c(F)c1`, 223 to 226 °C; that for `CCOc1nn(-c2ccc(C(F)(F)F)cn2)cc1CCCOc1ccc(CCC(=O)O)cc1O`, 124 to 125 °C. `COC(=O)c1c(C(=O)OC)c(-c2ccc(F)c(F)c2)n2c1Cc1ccccc1C2` displayed a melting point of 142 to 144 °C.

With `CCCCCCCCCCc1cc(C=O)on1`, the melting point lay in the range of 46 to 48 °C. Regarding `CC(=O)NC1CCc2c([nH]c3cc(O)ccc23)C1` (configuration not stated), the melting point lay in the range of 245 to 246 °C. For `O=S(=O)(F)CCCCCCCc1ccc(OCc2ccccc2)cc1`, the melting point was in the range of 35 to 38 °C. Turning to `CCOC(=O)c1cc2ccc(Oc3ccc([N+](=O)[O-])cc3)cc2oc1=O`, the melting point is 163 °C. The result for `COCc1ncnc(O)c1OC` reads 141 to 143 °C; that for `O=C(OCc1ccccc1)N1C[C@@H]2CN(c3ccc(N4C[C@H](CO)OC4=O)cc3)C[C@@H]2C1`, 163 to 164 °C; that for `Cc1cc(C(C)(C)C)c(O)cc1[N+](=O)[O-]`, 96 to 98 °C. Consider `O=C(c1ccc(Cl)cc1)c1cccc([N+](=O)[O-])c1N1CCCCC1`, for which the melting point is 141 °C. Compound `CC(C)OCc1nc(C(C)(C)O)c(C(=O)OC(C)C)[nH]1` had a melting point of 154 to 155 °C.

For `CS(=O)(=O)c1ccc(-c2cnn(-c3ccc(F)cc3)c(=O)c2OCC2CC2)cc1`, the melting point was in the range of 166 to 167 °C. `O=C1CCCC2=C1C(c1ccncc1)C1=C(CCS1)N2` (configuration not stated) had a melting point above 250 °C. `CC1(C)c2cc(C#N)ccc2OC1Cl` (configuration not stated) had a melting point of 105 to 106 °C.

Regarding `Cc1oc(-c2cc(C(C)(C)C)c(O)c(C(C)(C)C)c2)nc1CC(=O)O`, the melting point lay within 205 to 206 °C. Take `Cc1ccc(CN2CCN(C3=NC4(C=CC(=O)C=C4)C(c4ccc(O)cc4)=C3)CC2)cc1`: the melting point came out at 140 °C. Then `C#CCn1cc(CO)sc1=O`, with 97 to 98 °C; and `NCC(=O)NCc1cc(=O)c(O)co1`, with 216 to 218 °C; and `O=C(O)CC1(CCCCCCCCC2(CC(=O)O)CC2)CC1`, with 101 °C.

In the case of `Cc1ccc(-c2ccc3c(c2)C=C(C(=O)Nc2ccc(CN(C)C4CCSCC4)cc2)CO3)cc1`, the melting point lay within 169 to 171 °C. `N#Cc1nn(-c2c(Cl)cc(C(F)(F)F)cc2Cl)c(N)c1-c1cccs1` displayed a melting point of 206 to 207 °C. Compound `CN(CCOc1ccc([N+](=O)[O-])cc1F)c1ccccn1` showed a melting point of 95 to 96 °C. The result for `CC1CCCC(C)N1NC(=O)Nc1cccc2c1C(=O)c1c-2n[nH]c1-c1ccc(N2CCNCC2)cc1` (configuration not stated) reads 270 °C.

Take `O=C(Nc1cccc(Br)c1)Oc1ccc2ncccc2c1`: the melting point worked out at 260 °C.

Turning to `O=c1[nH]ncc2c1c(O)nc1cc(Cl)cc(Cl)c12`, the melting point was above 350 °C. For `Cc1ccc(O[C@@H]2CNCC[C@H]2O)cc1C` (relative stereo), the melting point was 98 to 99 °C.

As for `Cn1ccc2ccc(-c3ccc(C(C)(C)C)cc3)cc21`, the melting point was in the range of 92 to 94 °C. Regarding `N#Cc1cccnc1N1CCN(CC(=O)Nc2cccc(Cl)c2)CC1`, the melting point is 108 to 109 °C. Compound `Fc1ccc(-c2cn(C3CCCN4CCCCC34)nn2)cc1` (configuration not stated) registered a melting point of 142 °C.

The compound `CCOCc1cc2cc(Br)ccc2oc1=Nc1ccc(F)cc1` displayed a melting point of 153 to 154 °C. The compound `COC(=O)c1ccc2c(c1)CCN2C(=O)OC(C)(C)C` had a melting point of 107 to 108 °C. The result for `CC(C)Cn1c(=O)n(C)c(=O)c2cc(C(=O)c3cccc4ccccc34)sc21` reads 150 °C. Turning to `O=C(c1ccoc1)c1ccc(O)c(Cl)c1Cl`, the melting point fell in the range of 138 to 142 °C. Compound `NC1=NC(c2ccc(OC(F)(F)F)cc2)(c2ccc(F)c(N3C=C(F)C=NC3)c2)C2=NCCCN12` (configuration not stated) showed a melting point of 94 to 105 °C. The result for `N#CCC[C@H]1CC[C@@H](c2ccc(F)cc2)N1S(=O)(=O)c1ccc(Cl)cc1` (racemic) reads 108 °C. The compound `Cn1c(CC(=O)O)ccc1C(=O)c1ccccc1` returned a melting point of 144 to 145 °C. Then `CC(C)(C)CC(C)(C)Nc1nc(NC(C)(C)C(C)(C)C)nc(N2CC3CCC(CC3)C2)n1`, with 98 to 102 °C; and `CN(C)/C=C(\C#N)c1cccc(Br)c1`, with 102 to 105 °C; and `C=NOC(C(=O)O)c1cccc(NC(=O)NCC(=O)N2C(c3ccccc3)CCC2c2ccccc2)c1` (configuration not stated), with 194 °C. Compound `C[N+]1([O-])CC(c2ccccn2)C(=O)c2ccccc21` (configuration not stated) displayed a melting point of 132 to 134 °C.

Consider `COc1ccc(S(=O)(=O)C2(C(=O)O)CCN(Cc3ccc(Br)cc3)CC2)cc1`, for which the melting point was 215 °C. With `CCc1nc2c(C)cc(C)nc2n1C1CCc2cc(-c3ccccc3-c3nnn[nH]3)ccc21` (configuration not stated), the melting point was 181 °C. The result for `COC(=O)CCN1CCC(NC(=O)OC(C)(C)C)CC1` reads 91 to 93 °C.

The compound `NC(CN1C(=O)c2ccccc2C1=O)=NO` showed a melting point of 192 to 195 °C. `COc1ccc(-c2nc(CCl)cs2)cc1` returned a melting point of 125 to 128 °C. Consider `O=C(O)c1ccc(NCCCCCCCCCCCc2ccccc2)cc1`, for which the melting point is 50 to 52 °C.

`N#Cc1ccc2cc(O)ccc2c1` returned a melting point of 160 to 164 °C.

`O=C(CS(=O)Cc1ccc([N+](=O)[O-])cc1)NO` (configuration not stated) registered a melting point of 227 °C. In the case of `COC(=O)OC1CCC2C3CCC4=CC(=O)CCC4(C)C3CCC12C` (configuration not stated), the melting point lay in the range of 140 to 141 °C. For `CC(C)C(=O)Nc1ccc(N)c(C(F)(F)F)c1`, the melting point was 114 to 116 °C.

`Cc1c(N2CCC3(CC3N)C2)c(F)c(N)c2c(=O)c(C(=O)O)cn([C@@H]3C[C@@H]3F)c12` (some centres not stated) came in with a melting point of 118 to 120 °C. For `COCc1cccc(Cl)c1NC(=O)CC1c2ccccc2Oc2ccccc21`, the melting point was in the range of 184 to 185 °C. Consider `CCCCOCCOc1ccc(-c2ccc3c(c2)C=C(C(=O)O)CCN3c2ccc(S(=O)(=O)N(C)C)cc2)cc1`, for which the melting point lay within 236 to 238 °C.

In turn, `CCOC(=O)c1c(CN(CC)CC)nc2sc3c(c2c1-c1ccc(OC)c(OC)c1)CCCN3C(=O)OCc1ccccc1` returned a melting point of 138 to 139 °C. `COc1ccccc1Cc1n[nH]c2c1c(=O)n(-c1ccccc1)c1ncccc21`: the melting point was 276 to 277 °C. Then `CC(=O)OC[C@H]1O[C@@H](Cn2ccc(=S)[nH]c2=O)[C@@H](OC(C)=O)[C@@H]1OC(C)=O`, with 100 to 105 °C. For `CNC(=O)c1ccccc1Nc1nc(Nc2ccc3c(c2)CN(CCOC)CCS3)ncc1Cl`, the melting point lay within 176 to 177 °C. In turn, `O=C(NCc1ccccn1)c1ccc2cnccc2n1` yielded a melting point of 123 to 125 °C.

Compound `CC(C)(C)OC(=O)c1ccc(NC#N)cc1` yielded a melting point of 94 to 95 °C.

For the compound `Cc1cccc(Cl)c1NC(=O)NCc1ccc2c(c1)CN(C1CCC(=O)NC1=O)C2=O` (configuration not stated), the melting point is 243 to 245 °C.

`CS(=O)(=O)c1ccc(C2=C(c3cccc(F)c3F)CCC2)cc1` gave a melting point of 151 to 152 °C. Consider `CC1CCC(C(C)C)C(OC(=O)c2ccc(N)cc2O)C1` (configuration not stated), for which the melting point lay in the range of 187 to 189 °C. In the case of `Nn1nc(-c2ccc(Cl)cc2)cc1OCCN1CCCC1`, the melting point stood at 131 °C.
